Data set [1] in a line: Anionophoric activity across egg yolk phosphatidylcholine-based liposomal membrane vesicles (unknown origin) assessed as efflux of chloride anions after 300 seconds in presence of sodium nitrate in external solution by electrode technique. The format is ADME. The conditions noted are these: artificial membrane, 5 min.
Data set [2] in a line: Anionophoric activity across egg yolk phosphatidylcholine-based liposomal membrane vesicles (unknown origin) assessed as efflux of chloride anions at 3 mol% after 300 seconds in presence of Na+ by electrode technique. It is filed as ADME. Conditions: artificial membrane, 5 min.
A short description of data set [3]: Anionophoric activity across egg yolk phosphatidylcholine-based liposomal membrane vesicles (unknown origin) assessed as efflux of chloride anions at 3 mol% after 300 seconds in presence of K+ by electrode technique. It is filed as ADME. Conditions: artificial membrane, 5 min.
The nature of data set [4]: Anionophoric activity across egg yolk phosphatidylcholine-based liposomal membrane vesicles (unknown origin) assessed as efflux of chloride anions at 5 mol% after 300 seconds in presence of sodium sulfate by electrode technique. It is filed as ADME. Conditions: artificial membrane, 5 min.
Data set [5] can be described thus: Anionophoric activity across egg yolk phosphatidylcholine-based liposomal membrane vesicles (unknown origin) assessed as induction of pH discharge at 3 mol% after 20 mins in presence of I- by fluorescence based pyranine entrap assay. The conditions noted are these: artificial membrane.
The nature of data set [6]: Anionophoric activity across egg yolk phosphatidylcholine-based liposomal membrane vesicles (unknown origin) assessed as efflux of chloride anions at 3 mol% after 300 seconds in presence of Cs+ by electrode technique. The format is ADME. The conditions noted are these: artificial membrane, 5 min.
The nature of data set [7]: Anionophoric activity across egg yolk phosphatidylcholine-based liposomal membrane vesicles (unknown origin) assessed as relative chloride efflux measured as ratio of intrinsic rate constant and dissociation constant of self-association process after 300 seconds in presence of sodium nitrate in external solution by electrode technique. It is filed as ADME. The conditions noted are these: artificial membrane, 5 min.

Data set [8] is described as follows: Anionophoric activity across egg yolk phosphatidylcholine-based liposomal membrane vesicles (unknown origin) assessed as efflux of chloride anions at 3 mol% after 300 seconds in presence of Li+ by electrode technique. It is filed as ADME. The conditions noted are these: artificial membrane, 5 min.
The nature of data set [9]: Anionophoric activity across egg yolk phosphatidylcholine-based liposomal membrane vesicles (unknown origin) assessed as efflux of chloride anions at 3 mol% after 300 seconds in presence of Rb+ by electrode technique. The format is ADME. The conditions noted are these: artificial membrane, 5 min.
A short description of data set [10]: Anionophoric activity across egg yolk phosphatidylcholine-based liposomal membrane vesicles (unknown origin) assessed as induction of pH discharge at 3 mol% after 20 mins in presence of Br- by fluorescence based pyranine entrap assay. The conditions noted are these: artificial membrane.
Data set [11] in a line: Anionophoric activity across egg yolk phosphatidylcholine-based liposomal membrane vesicles (unknown origin) assessed as induction of pH discharge at 3 mol% after 20 mins in presence of Cl- by fluorescence based pyranine entrap assay. The conditions noted are these: artificial membrane.
Data set [12] is described as follows: Anionophoric activity across 70% POPC/30% cholesterol-based liposomal membrane vesicles (unknown origin) assessed as induction of pH discharge at 3 mol% after 20 mins by fluorescence based pyranine entrap assay.
The nature of data set [13]: Anionophoric activity across egg yolk phosphatidylcholine-based liposomal membrane vesicles (unknown origin) assessed as induction of pH discharge at 3 mol% after 20 mins in presence of NO3- by fluorescence based pyranine entrap assay. Conditions: artificial membrane.

Calls of active or inactive are those of the source. The calls are words filed in the database; no cut-off is given here.

Regarding `C[C@H](CCC(=O)NCc1ccc(CNC(=O)CC[C@@H](C)[C@H]2CC[C@H]3[C@@H]4[C@H](O)C[C@@H]5C[C@H](O)CC[C@]5(C)[C@H]4C[C@H](O)[C@]23C)cc1)[C@H]1CC[C@H]2[C@@H]3[C@H](O)C[C@@H]4C[C@H](O)CC[C@]4(C)[C@H]3C[C@H](O)[C@]12C`, the Activity entry in data set [1] is “Not Active”.
Turning to `C[C@H](CCC(=O)NC(Cc1cnc[nH]1)C(=O)NCc1ccc(CNC(=O)C(Cc2cnc[nH]2)NC(=O)CC[C@@H](C)[C@@H]2CC[C@@H]3[C@@H]4[C@@H](C[C@@H](O)[C@]32C)[C@]2(C)CC[C@H](O)C[C@@H]2C[C@@H]4O)cc1)[C@H]1CC[C@H]2[C@@H]3[C@H](O)C[C@@H]4C[C@H](O)CC[C@]4(C)[C@H]3C[C@H](O)[C@]12C` (some centres undefined), the outcome in data set [2], in data set [3], in data set [4], in [5], in data set [6] and in [8] was Active. Besides, the Activity result in data set [9] is reported as “Active”; in data set [10], “Active”; in [1] it was “Dose-dependent effect”; in [11], “Active”; in data set [13], “Active”. Besides, the Ratio in [7] worked out at 1.45 ×10⁻² /s. In data set [12], the outcome was Active.

Values taken from ChEMBL document CHEMBL3826873, “Efficient transmembrane anion transport mediated by a bis(imidazolyl)-functionalized bis(choloyl) conjugate” (Bioorg Med Chem Lett, 2016).
